From patent US11046699B2, “Pyrazolo-pyrimidin-amino-cycloalkyl compounds and their therapeutic uses” (RAPT THERAPEUTICS, INC., priority 2018, dated 2021)
Read-outs that look alike come from different tables or passages of the source.

Biological target: GCN2 (Homo sapiens, UniProt Q9P2K8)
Experiment: GCN2 enzymatic endpoint assay: phosphorylation of GFP-eIF2α measured by TR-FRET (Lanthascreen)
Type: biochemical
Outline: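 Kinase activity is measured as phosphorylation of GFP-labelled eIF2α (80 nM) with ATP at 2 μM. Incubation runs 90 minutes at room temperature before EDTA quench and terbium-antibody detection.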

[1] = tested as described in Example 77, compound and/or hydrochloride, dihydrochloride or trifluoroacetic acid salt, read-out: IC 50 Activity

Sequence of GCN2 (Q9P2K8 whole entry): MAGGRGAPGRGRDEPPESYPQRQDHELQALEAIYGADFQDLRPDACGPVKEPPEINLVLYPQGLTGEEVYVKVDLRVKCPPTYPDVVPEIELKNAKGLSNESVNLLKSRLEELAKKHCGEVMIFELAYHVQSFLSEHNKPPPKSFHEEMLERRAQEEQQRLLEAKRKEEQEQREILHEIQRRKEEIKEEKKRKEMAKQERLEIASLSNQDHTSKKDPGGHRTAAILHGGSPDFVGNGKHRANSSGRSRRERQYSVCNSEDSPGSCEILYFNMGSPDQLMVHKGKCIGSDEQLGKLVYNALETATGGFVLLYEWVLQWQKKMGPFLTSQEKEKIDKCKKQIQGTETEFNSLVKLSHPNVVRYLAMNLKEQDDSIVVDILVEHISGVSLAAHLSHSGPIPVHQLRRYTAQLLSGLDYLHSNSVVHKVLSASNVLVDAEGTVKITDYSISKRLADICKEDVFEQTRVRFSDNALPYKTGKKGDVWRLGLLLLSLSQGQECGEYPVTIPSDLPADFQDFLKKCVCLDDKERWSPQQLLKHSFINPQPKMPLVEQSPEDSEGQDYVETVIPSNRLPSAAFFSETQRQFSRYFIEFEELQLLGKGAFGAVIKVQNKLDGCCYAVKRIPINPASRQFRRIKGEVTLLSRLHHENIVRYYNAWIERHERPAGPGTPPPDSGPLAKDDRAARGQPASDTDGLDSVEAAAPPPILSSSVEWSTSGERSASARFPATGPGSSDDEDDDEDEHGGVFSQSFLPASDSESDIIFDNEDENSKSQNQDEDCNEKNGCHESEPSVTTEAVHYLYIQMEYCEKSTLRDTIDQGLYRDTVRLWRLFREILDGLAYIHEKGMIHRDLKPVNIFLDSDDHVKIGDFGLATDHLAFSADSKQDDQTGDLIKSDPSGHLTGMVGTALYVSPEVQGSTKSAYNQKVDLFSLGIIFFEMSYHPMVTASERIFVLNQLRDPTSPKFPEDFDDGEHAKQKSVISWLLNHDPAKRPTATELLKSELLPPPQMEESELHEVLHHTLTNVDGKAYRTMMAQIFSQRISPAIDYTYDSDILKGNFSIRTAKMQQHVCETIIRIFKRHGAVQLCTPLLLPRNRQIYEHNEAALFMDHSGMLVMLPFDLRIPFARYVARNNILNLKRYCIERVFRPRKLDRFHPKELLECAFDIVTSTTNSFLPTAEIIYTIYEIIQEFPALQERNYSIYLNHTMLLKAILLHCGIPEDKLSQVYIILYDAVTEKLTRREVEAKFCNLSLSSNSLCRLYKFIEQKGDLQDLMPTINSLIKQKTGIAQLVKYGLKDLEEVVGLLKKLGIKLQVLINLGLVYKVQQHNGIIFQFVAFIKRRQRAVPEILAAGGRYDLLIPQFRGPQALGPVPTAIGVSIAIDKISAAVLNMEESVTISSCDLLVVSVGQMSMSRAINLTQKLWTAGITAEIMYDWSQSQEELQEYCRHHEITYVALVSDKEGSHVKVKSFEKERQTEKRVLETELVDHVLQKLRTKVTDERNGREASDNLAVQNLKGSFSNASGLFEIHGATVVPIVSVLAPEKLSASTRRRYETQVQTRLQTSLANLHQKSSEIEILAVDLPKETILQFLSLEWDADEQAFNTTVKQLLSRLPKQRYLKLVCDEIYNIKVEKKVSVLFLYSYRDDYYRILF

| IC50 [1] [nM] | IC50 (GCN2 biochemical IC50, 4 nM GCN2, 2 μM ATP, 80 nM GFP-eIF2α, 90 min RT, read-out: GCN2 activity) [nM] | Compound |
| --- | --- | --- |
| 25 to 200 |  | CNC(=O)[C@]1(C)CCC(Nc2ncc3c(Br)nn(-c4ccc5c(c4)CNC5=O)c3n2)C1 (stereo partly drawn) [(1R)-3-[[3-bromo-1-(1-oxoisoindolin-5-yl)pyrazolo[3,4-d]pyrimidin-6-yl]amino]-N,1-dimethyl-cyclopentanecarboxamide] |
| 25 to 200 |  | N#Cc1cc(-n2nc(Br)c3cnc(N[C@@H]4CC[C@@H](C(=O)NC5CCN(CC(F)(F)F)C5)C4)nc32)cc2cccnc12 (mixture of isomers) |
| 25 to 200 |  | CNC(=O)[C@@]1(C)CC[C@@H](Nc2ncc3c(Br)nn(-c4cc(N5CCNCC5)c5ncccc5c4)c3n2)C1 [(1S,3R)-3-[[3-bromo-1-(8-piperazin-1-yl-6-quinolyl)pyrazolo[3,4-d]pyrimidin-6-yl]amino]-N,1-dimethyl-cyclopentane-carboxamide] |
| 25 to 200 |  | CNC(=O)[C@]1(C)CC[C@@H](Nc2ncc3c(Br)nn(-c4cc(CN5C(=O)CNCC5=O)c5ncccc5c4)c3n2)C1 [(1R,3R)-3-[[3-bromo-1-[8-[(2,6-dioxo-piperazin-1-yl)methyl]-6-quinolyl]pyrazolo [3,4-d]pyrimidin-6-yl]amino]-N,1-dimethyl-cyclopentanecarboxamide] |
| < 25 |  | C[C@@H]1C(=O)N(C)CCN1C(=O)[C@@H]1CC[C@@H](Nc2ncc3c(Br)nn(-c4cc(C#N)c5ncccc5c4)c3n2)C1 [6-(3-bromo-6-(((1R,3R)-3-((R)-2,4-dimethyl-3-oxopiperazine-1-carbonyl)cyclopentyl)amino)-1H-pyrazolo[3,4-d]pyrimidin-1-yl) quinoline-8-carbonitrile] |
| 25 to 200 |  | O=C1CN(C(=O)[C@@H]2CC[C@@H](Nc3ncc4c(Br)nn(-c5cc(F)c6ncccc6c5)c4n3)C2)CN1CC1CC1 [1-[(1R,3R)-3-[[3-bromo-1-(8-fluoro-6-quinolyl)pyrazolo[3,4-d]pyrimidin-6-yl]amino]cyclopentanecarbonyl]-3-(cyclopropylmethyl)imidazolidin-4-one] |
| 25 to 200 |  | CNC(=O)C1(C)CC[C@@H](Nc2ncc3c(Br)nn(-c4cc(CO)cc(OC)c4)c3n2)C1 (stereo partly drawn) [(3R)-3-[[3-bromo-1-[3-(hydroxymethyl)-5-methoxy-phenyl]pyrazolo[3,4-d]pyrimidin-6-yl]amino]-N,1-dimethyl-cyclopentanecarboxamide] |
| 25 to 200 |  | CNC(=O)[C@]1(C)CC[C@@H](Nc2ncc3c(Br)nn(-c4ccc5c(c4)OCC(=O)N5)c3n2)C1 [(1R,3R)-3-[[3-bromo-1-(3-oxo-4H-1,4-benzoxazin-7-yl)pyrazolo[3,4-d]pyrimidin-6-yl]amino]-N,1-dimethyl-cyclopentanecarboxamide] |
| 25 to 200 |  | COCCNS(=O)(=O)[C@H]1CC[C@@H](Nc2ncc3c(Br)nn(-c4ccc(-c5nnc(C)s5)cc4)c3n2)C1 [(1S,3R)-3-[[3-bromo-1-[4-(5-methyl-1,3,4-thiadiazol-2-yl)phenyl]pyrazolo[3,4-d]pyrimidin-6-yl]amino]-N-(2-methoxyethyl)cyclopentanesulfonamide] |
| 25 to 200 |  | CNC(=O)[C@]1(C)CC[C@@H](Nc2ncc3c(Br)nn(-c4cc(Cl)cc(C5COC(=O)N5C)c4)c3n2)C1 (stereo partly drawn) [(1R,3R)-3-[[3-bromo-1-[3-chloro-5-(3-methyl-2-oxo-oxazolidin-4-yl)phenyl]pyrazolo[3,4-d]pyrimidin-6-yl]amino]-N,1-dimethyl-cyclopentanecarboxamide] |
| 25 to 200 |  | CNC(=O)C1(C)CC[C@@H](Nc2ncc3c(Br)nn(-c4cc(CO)cc(OC)c4)c3n2)C1 (mixture of isomers) |
| 25 to 200 |  | CNC(=O)[C@]1(C)CC[C@@H](Nc2ncc3c(Br)nn(-c4cc(CS(C)(=O)=O)c5ncccc5c4)c3n2)C1 [(1R,3R)-3-[[3-bromo-1-[8-(methylsulfonyl-methyl)-6-quinolyl]pyrazolo[3,4-d]pyrimidin-6-yl]amino]-N,1-dimethyl-cyclopentanecarboxamide] |
| < 25 |  | CNC(=O)[C@]1(CC(=O)N(C)C)CC[C@@H](Nc2ncc3c(Br)nn(-c4cc(F)c5ncccc5c4)c3n2)C1 [(1R,3R)-3-[[3-bromo-1-(8-fluoro-6-quinolyl)pyrazolo[3,4-d]pyrimidin-6-yl]amino]-1-[2-(dimethylamino)-2-oxo-ethyl]-N-methyl-cyclopentanecarboxamide] |
| 25 to 200 |  | CNC(=O)[C@]1(C)CC[C@@H](Nc2ncc3c(Br)nn(-c4cccc(NC(=O)c5cncnc5)c4)c3n2)C1 [N-[3-[3-bromo-6-[[(1R,3R)-3-methyl-3-(methylcarbamoyl)cyclopentyl]amino]pyrazolo[3,4-d]pyrimidin-1-yl]phenyl] pyrimidine-5-carboxamide] |
| 200 to 500 |  | O=C(NC[C@@H]1COCCN1)[C@@H]1CC[C@@H](Nc2ncc3c(Br)nn(-c4ccc5ncccc5c4)c3n2)C1 [(1R,3R)-3-((3-bromo-1-(quinolin-6-yl)-1H-pyrazolo[3,4-d]pyrimidin-6-yl)amino)-N-(((R)-morpholin-3-yl)methyl)cyclopentane-1-carboxamide] |
| 25 to 200 |  | CCN(CC)C(=O)C1(C)CC[C@@H](Nc2ncc3c(Br)nn(-c4cc(F)c5ncccc5c4)c3n2)C1 (stereo partly drawn) [(3R)-3-[[3-bromo-1-(8-fluoro-6-quinolyl)pyrazolo[3,4-d]pyrimidin-6-yl]amino]-N,N-diethyl-1-methyl-cyclopentanecarboxamide] |
| 25 to 200 |  | CC1(CNC(=O)[C@@H]2CC[C@@H](Nc3ncc4c(Br)nn(-c5cc(F)c6ncccc6c5)c4n3)C2)COC1 [(1R,3R)-3-((3-bromo-1-(8-fluoroquinolin-6-yl)-1H-pyrazolo[3,4-d]pyrimidin-6-yl)amino)-N-((3-methyloxetan-3-yl)methyl)cyclopentane-1-carboxamide] |
| 25 to 200 |  | C[C@H]1COCCN1C(=O)[C@@H]1CC[C@@H](Nc2ncc3c(Br)nn(-c4ccc5ncccc5c4)c3n2)C1 [((1R,3R)-3-((3-bromo-1-(quinolin-6-yl)-1H-pyrazolo[3,4-d]pyrimidin-6-yl)amino)cyclopentyl)((S)-3-methylmorpholino) methanone] |
| 25 to 200 |  | CNC(=O)[C@]1(C)CC[C@@H](Nc2ncc3c(Br)nn(-c4cc(C#N)cc(CO)c4)c3n2)C1 [(1R,3R)-3-[[3-bromo-1-[3-cyano-5-(hydroxymethyl)phenyl]pyrazolo[3,4-d]pyrimidin-6-yl]amino]-N,1-dimethyl-cyclopentanecarboxamide] |
| 25 to 200 |  | CNC(=O)[C@]1(C)CC[C@@H](Nc2ncc3c(Br)nn(-c4cc(Cl)cc([C@H]5COC(=O)N5)c4)c3n2)C1 [(1R,3R)-3-[[3-bromo-1-[3-chloro-5-[(4S)-2-oxooxazolidin-4-yl]phenyl]pyrazolo[3,4-d]pyrimidin-6-yl]amino]-N,1-dimethyl-cyclopentanecarboxamide] |
| < 25 |  | CNC(=O)[C@]1(C)CC[C@@H](Nc2ncc3c(Br)nn(-c4cc(F)cc(CCO)c4)c3n2)C1 [(1R,3R)-3-[[3-bromo-1-[3-fluoro-5-(2-hydroxyethyl)phenyl]pyrazolo [3,4-d]pyrimidin-6-yl]amino]-N,1-dimethyl-cyclopentanecarboxamide] |
| 25 to 200 |  | CNC(=O)[C@]1(C)CC[C@@H](Nc2ncc3c(Br)nn(-c4cc(CS(C)(=O)=O)c5nccnc5c4)c3n2)C1 [(1R,3R)-3-[[3-bromo-1-[8-(methyl-sulfonylmethyl)quinoxalin-6-yl]pyrazolo [3,4-d]pyrimidin-6-yl]amino]-N,1-dimethyl-cyclopentanecarboxamide] |
| 25 to 200 |  | CNC(=O)[C@]1(C)CC[C@@H](Nc2ncc3c(Br)nn(-c4cc(CNCCOC)cc(OC(F)(F)F)c4)c3n2)C1 [(1R,3R)-3-[[3-bromo-1-[3-[(2-methoxy-ethylamino)methyl]-5-(trifluoromethoxy)phenyl]pyrazolo[3,4-d]pyrimidin-6-yl]amino]-N,1-dimethyl-cyclopentanecarboxamide] |
| < 25 |  | CC1(C(=O)N2CCOCC2)CC[C@@H](Nc2ncc3c(Br)nn(-c4cc(F)c5ncccc5c4)c3n2)C1 (stereo partly drawn) [[(3R)-3-[[3-bromo-1-(8-fluoro-6-quinolyl)pyrazolo[3,4-d]pyrimidin-6-yl]amino]-1-methyl-cyclopentyl]-morpholino-methanone] |
| 25 to 200 |  | CN(C)S(=O)(=O)[C@@H]1CC[C@@H](Nc2ncc3c(Br)nn(-c4ccc5ncccc5c4)c3n2)C1 [(1R,3R)-3-((3-bromo-1-(quinolin-6-yl)-1H-pyrazolo[3,4-d]pyrimidin-6-yl)amino)-N,N-dimethylcyclopentane-1-sulfonamide] |
|  | 25 to 200 | CNC(=O)[C@]1(C)CC[C@@H](Nc2ncc3c(Br)nn(-c4ccc(-c5nnc(C)o5)c(CO)c4)c3n2)C1 [Example 58, (1R,3R)-3-((3-bromo-1-(3-(hydroxymethyl)-4-(5-methyl-1,3,4-oxadiazol-2-yl)phenyl)-1H-pyrazolo[3,4-d]pyrimidin-6-yl)amino)-N,1-dimethylcyclopentane-1-carboxamide] |
| 25 to 200 |  | CNC(=O)[C@]1(C)CC[C@@H](Nc2ncc3c(Br)nn(-c4ccc(-c5nnc(C(=O)NCCN(C)C)s5)cc4)c3n2)C1 [5-[4-[3-bromo-6-[[(1R,3R)-3-methyl-3-(methylcarbamoyl)cyclopentyl]amino]pyrazolo[3,4-d]pyrimidin-1-yl]phenyl]-N-[2-(dimethylamino)ethyl]-1,3,4-thiadiazole-2-carboxamide] |
| < 25 |  | CC1(C(N)=O)CC[C@@H](Nc2ncc3c(Br)nn(-c4ccc(-c5ncco5)c(F)c4)c3n2)C1 (stereo partly drawn) [(3R)-3-[[3-bromo-1-(3-fluoro-4-oxazol-2-yl-phenyl)pyrazolo[3,4-d]pyrimidin-6-yl]amino]-1-methyl-cyclopentanecarboxamide] |

| Compound | IC50 [1] [nM] | IC50 (GCN2 biochemical IC50, 4 nM GCN2, 2 μM ATP, 80 nM GFP-eIF2α, 90 min RT, read-out: GCN2 activity) [nM] |
| --- | --- | --- |
| CNC(=O)[C@]1(C)CC[C@@H](Nc2ncc3c(Br)nn(-c4cc(C#N)cc(CN)c4)c3n2)C1 | 25 to 200 |  |
| CNC(=O)C1(CC#N)CC[C@@H](Nc2ncc3c(Br)nn(-c4ccc(-c5nnc(C)s5)c(CCC#N)c4)c3n2)C1 (stereo partly drawn) | 25 to 200 |  |
| Cc1nnc(-c2ccc(-n3nc(Br)c4cnc(N[C@@H]5CC[C@@](C)(C(=O)N6CCOCC6)C5)nc43)cc2CCC#N)s1 | 25 to 200 |  |
| CC[C@H](N)c1cc(Cl)cc(-n2nc(Br)c3cnc(N[C@@H]4CC[C@@](C)(C(=O)NC)C4)nc32)c1 | 25 to 200 |  |
| CNC(=O)CCC1(C#N)CC[C@@H](Nc2ncc3c(Br)nn(-c4ccc(-c5nnc(C)s5)cc4)c3n2)C1 (stereo partly drawn) | < 25 |  |
